From patent US20230346717A1, “IDENTIFICATION AND USE OF COMPOUNDS IN THE TREATMENT OR PREVENTION OF SEVERE ACUTE RESPIRATORY SYNDROME CORONAVIRUS 2” (priority 2020, published 2023)
Where a name gives a salt, the structure may show the parent alone. Read-outs that look alike come from different tables or passages of the source.

Columns and labels:
Assay type in all cases: cell-based, human
PSAP = assay: Gene expression assay, lysosome gene PSAP; details: probe 200866_s_at; ARPE-19/HPV-16, 10 μM, 24 h
Description: (§1) A drug screen was used to test agents having the potential to treat or prevent SARS-CoV-2 infection. The retinal pigment epithelia cell line, ARPE-19/HPV-16, was chosen to establish a database of drug profiles because of its non-cancerous, human origin, with a normal karyotype. ARPE-19/HPV-16 can be easily grown as monolayer in 96-well plates and expresses a variety of well known, neuronal, cell surface receptors that include the dopamine receptor D2, the serotonin receptors 1A, 2A, and 2C, the muscarinic receptor M3, and the histamine receptor H1.
(§2) Cell lines were propagated according to supplier's specifications (ATCC Manassas, VA). Compounds were obtained from Sigma (St. Louis, MO) or Vanda Pharmaceuticals (Washington, DC). Cells were aliquoted on 96-well plates (˜2×10^5 cells/well) and incubated for 24 hours prior to providing fresh media with a drug, or the drug vehicle (water, dimethyl sulfoxide, ethanol, methanol, or phosphate-buffered saline solution). Drugs were diluted 1000-fold in buffered Advanced D-MEM/F-12 culture medium (Invitrogen, Carlsbad, CA) containing nonessential amino acids and 110 mg/L sodium pyruvate. […]
(§3) Cells were harvested 24 hours after treatment and RNA was extracted using the RNeasy 96 protocol (Qiagen, Valencia, CA). […] A total of 708 microarrays were analyzed including 74 for 18 antipsychotics, 499 for 448 other compounds, and 135 for vehicle controls. […]

RAB38 = assay: Gene expression assay, lysosome gene RAB38; details: probe 219412_at; ARPE-19/HPV-16, 10 μM, 24 h
Description: as §1, §2, §3

LAMP1 = assay: Gene expression assay, lysosome gene LAMP1; details: probe 201551_s_at; ARPE-19/HPV-16, 10 μM, 24 h
Description: as §1, §2, §3

MAR3 = assay: Gene expression assay, lysosome gene MAR3; details: probe 213256_at; ARPE-19/HPV-16, 10 μM, 24 h
Description: as §1, §2, §3

lysosome pathway genes = assay: Enrichment analysis of genes downregulated by amantadine (top 500 differentially expressed probes); details: ARPE-19/HPV-16, 10 μM, 24 h
Description: as §1, §2, §3

N-acetyl-6-sulfatase = assay: Gene expression assay, lysosome gene N-acetyl-6-sulfatase; details: probe 212334_at; ARPE-19/HPV-16, 10 μM, 24 h
Description: as §1, §2, §3

CTSB = assay: Gene expression assay, lysosome gene CTSB; details: probe 213274_s_at; ARPE-19/HPV-16, 10 μM, 24 h
Description: as §1, §2, §3

[1] = tested on: steroid sulfatase (microsomal); assay: Gene expression assay, lysosome gene steroid sulfatase (microsomal); details: probe 203767_s_at; ARPE-19/HPV-16, 10 μM, 24 h
Description: as §1, §2, §3

AGA = details: ARPE-19/HPV-16, 10 μM, 24 h
CTSK = assay: Gene expression assay, lysosome gene CTSK; details: probe 202450_s_at; ARPE-19/HPV-16, 10 μM, 24 h
Description: as §1, §2, §3

RNASET2 = assay: Gene expression assay, lysosome gene RNASET2; details: probe 217983_s_at; ARPE-19/HPV-16, 10 μM, 24 h
Description: as §1, §2, §3

SCARB2 = assay: Gene expression assay, lysosome gene SCARB2; details: probe 201647_s_at; ARPE-19/HPV-16, 10 μM, 24 h
Description: as §1, §2, §3

ceroid-lipofuscinosis = assay: Gene expression assay, lysosome gene ceroid-lipofuscinosis; details: ARPE-19/HPV-16, 10 μM, 24 h
Description: as §1
Cell lines were propagated according to supplier's specifications (ATCC Manassas, VA). Compounds were obtained from Sigma (St. Louis, MO) or Vanda Pharmaceuticals (Washington, DC). Cells were aliquoted on 96-well plates (˜2×10^5 cells/well) and incubated for 24 hours prior to providing fresh media with a drug, or the drug vehicle (water, dimethyl sulfoxide, ethanol, methanol, or phosphate-buffered saline solution). Drugs were diluted 1000-fold in buffered Advanced D-MEM/F-12 culture medium (Invitrogen, Carlsbad, CA) containing nonessential amino acids and 110 mg/L sodium pyruvate. In these conditions, no significant changes of pH were expected, which was confirmed by the monitoring of the pH indicator present in the medium.
A final 10 μM drug concentration was chosen because it is believed to fit in the range of physiological relevance. Microscopic inspection of each well was conducted at the end of the treatment to discard any samples where cells had morphological changes consistent with apoptosis. It was also verified that the drug had not precipitated in the culture medium.
Cells were harvested 24 hours after treatment and RNA was extracted using the RNeasy 96 protocol (Qiagen, Valencia, CA). Gene expression for 22,238 probe sets of 12,490 genes was generated with U133A2.0 microarrays following the manufacturer's instructions (Affymetrix, Santa Clara, CA). Drugs were profiled in duplicate or triplicate, with multiple vehicle controls on each plate. A total of 708 microarrays were analyzed including 74 for 18 antipsychotics, 499 for 448 other compounds, and 135 for vehicle controls.
The raw scan data were first converted to average difference values using MAS 5.0 (Affymetrix). The average difference values of both treatment and control data were set to a minimum threshold of 50 if below 50. For each treatment instance, all probe sets were then ranked based on their amplitude, or level of expression relative to the vehicle control (or average of controls when more than one was used). Amplitude was defined as the ratio of expression (t−v)/[(t+v)/2] where t corresponds to treatment instance and v to vehicle instance. […]

PCYOX1 = assay: Gene expression assay, lysosome gene PCYOX1; details: probe 203803_at; ARPE-19/HPV-16, 10 μM, 24 h
Description: as §1, §2, §3

CTBS = assay: Gene expression assay, lysosome gene CTBS; details: probe 218924_s_at; ARPE-19/HPV-16, 10 μM, 24 h
Description: as §1, §2, §3

CTSL = details: ARPE-19/HPV-16 cells, 10 μM drug, 24 hours
Description: Each drug group profile was created using a novel Weighted Influence Model, Rank of Ranks (WIMRR) method which underscores the rank of each probe set across the entire gene expression profile rather than the specific change in expression level. WIMRR takes the average rank of each probe set across all of the members of the group and then re-ranks the probe sets from smallest average rank to largest average rank. A gene-set enrichment metric based on the Kolmogorov-Smirnov (KS) statistic.
Applicant analyzed expression profile of CTSL across all 466 drugs tested. In order to find positive hits and selected only those results that caused decrease of CTSL expression by at least 33% (1.5-fold down).

GALC = assay: Gene expression assay, lysosome gene GALC; details: probe 204417_at; ARPE-19/HPV-16, 10 μM, 24 h
Description: as §1, §2, §3

Structure (SMILES): NC12CC3CC(CC(C3)C1)C2 [Amantadine Hydrochloride]
- avg_tx (log2) PSAP (PSAP): 10.59 log2
- diff (log2) PSAP (PSAP): −1.36 log2
- avg_tx (log2) RAB38 (RAB38): 6.51 log2
- diff (log2) RAB38 (RAB38): −1.3 log2
- avg_tx (log2) LAMP1 (LAMP1): 7.87 log2
- diff (log2) LAMP1 (LAMP1): −1.4 log2
- avg_tx (log2) MAR3 (MAR3): 5.55 log2
- diff (log2) MAR3 (MAR3): −1.57 log2
- expression reduction of the top 500 differentially expressed probes (383 genes) (lysosome pathway genes): at least 50%
- avg_tx (log2) N-acetyl-6-sulfatase (N-acetyl-6-sulfatase): 9.71 log2
- diff (log2) N-acetyl-6-sulfatase (N-acetyl-6-sulfatase): −1.27 log2
- avg_tx (log2) CTSB (CTSB): 7.75 log2
- diff (log2) CTSB (CTSB): −1.48 log2
- avg_tx (log2) steroid sulfatase (microsomal) [1]: 5.55 log2
- diff (log2) steroid sulfatase (microsomal) [1]: −1.47 log2
- avg_tx (log2) AGA (AGA; probe 204332_s_at): 9.18 log2
- diff (log2) AGA (AGA; probe 204332_s_at): −1.39 log2
- avg_tx (log2) AGA (AGA; probe 204333_s_at): 6.57 log2
- diff (log2) AGA (AGA; probe 204333_s_at): −1.6 log2
- avg_tx (log2) AGA (AGA; probe 216064_s_at): 8.12 log2
- diff (log2) AGA (AGA; probe 216064_s_at): −1.38 log2
- avg_tx (log2) CTSK (CTSK): 7.09 log2
- diff (log2) CTSK (CTSK): −1.81 log2
- avg_tx (log2) RNASET2 (RNASET2): 8 log2
- diff (log2) RNASET2 (RNASET2): −1.81 log2
- avg_tx (log2) SCARB2 (SCARB2): 6.97 log2
- diff (log2) SCARB2 (SCARB2): −1.63 log2
- avg_tx (log2) ceroid-lipofuscinosis (ceroid-lipofuscinosis; probe 204085_s_at): 5.93 log2
- diff (log2) ceroid-lipofuscinosis (ceroid-lipofuscinosis; probe 204085_s_at): −1.74 log2
- avg_tx (log2) ceroid-lipofuscinosis (ceroid-lipofuscinosis; probe 214252_s_at): 6.13 log2
- diff (log2) ceroid-lipofuscinosis (ceroid-lipofuscinosis; probe 214252_s_at): −1.57 log2
- avg_tx (log2) PCYOX1 (PCYOX1): 7.15 log2
- diff (log2) PCYOX1 (PCYOX1): −1.57 log2
- avg_tx (log2) CTBS (CTBS): 6.59 log2
- diff (log2) CTBS (CTBS): −1.32 log2
- log2(treated) CTSL (CTSL): 9.62 log2
- log2 difference (CTSL, treated vs control) (CTSL): −0.70 log2
- avg_tx (log2) GALC (GALC): 6.58 log2
- diff (log2) GALC (GALC): −2.06 log2
